Molecule CCOc1cc(C(=O)c2ccccn2)ccc1OCCOc1c(CC(=O)O)cccc1OC has a melting point of 184 to 186 °C.
COC(=C(C)C#N)C(F)(F)F gave a melting point of 68 to 76.5 °C.
For COc1ccc2[nH]c(S(=O)Cc3cc(N4CCCCC4)ncn3)nc2c1 (centres undefined), the melting point was 98 to 101 °C.
O=Cc1coc2cc3c(cc2c1=O)OCO3 gave a melting point of 232 to 233 °C.
Molecule CC(C)(C)C(=O)NCCC(=O)NC1CCCCC1Nc1cccc2c1C(=O)c1ccccc1C2=O (centres undefined) has a melting point of 168 °C.
CS(=O)(=O)N1CCC(NC(=O)N(CCCN2CCC(Cc3ccccc3)CC2)c2ccccc2)CC1 showed a melting point of 158 to 160 °C.
With NC(=O)C(=O)NCCc1ccc(OCc2ccccc2)c(OCc2ccccc2)c1 the melting point was 187 °C.
CN(C)c1ccc(N=Nc2ccccc2C(=O)NCCNC(=O)CI)cc1 gave a melting point of 140 to 142 °C.
Clc1cc2nc(NC3CC3)[nH]c2cc1Cl gave a melting point of 223 to 225 °C.
Work on O=C(NC(=O)c1c(Cl)cccc1Cl)Nc1ccc(Cl)c(Cl)c1 yielded a melting point of 232 °C.
Molecule CCOCCn1c(SC2CCN(C(=O)c3cc(C)cc(C)c3)C(Cc3ccccc3)C2)nc2ccccc21 (centres undefined) has a melting point of 147 °C.
Work on CNC1Cc2ccccc2C1Nc1ccccc1 (centres undefined) yielded a melting point of 121 to 122 °C.
CC(C)(C)CC(C)(C)c1cc(-n2nc3ccc(-c4cccnc4)cc3n2)c(O)c(C(C)(C)c2ccccc2)c1 gave a melting point of 126 to 128 °C.
For CC1(C)Oc2ccc(S(=O)(=O)C(F)(F)F)cc2[C@@H](N2Cc3c(F)cccc3C2=O)[C@@H]1O (relative stereo), the melting point was 259 to 261 °C.
With OCc1cnc2sc3c(n12)CCCC3 the melting point was 182 to 183 °C.
For CC1(C)Cc2ccc(C#N)cc2N(C(=O)NCc2ccccc2)C1, the melting point was 162 to 163 °C.
O=C1CC(c2ccc(C3CCCCCC3)cc2)C(=O)O1 (centres undefined) showed a melting point of 102 to 104 °C.
For COC(CCl)NC(=O)c1ccccc1 (centres undefined), the melting point was 76.9 to 77.7 °C.
For CCCCCCCCCCc1ccc2cc(OC)ccc2c1, the melting point was 48.6 to 49.3 °C.
With COc1ccc(NC(=O)C#Cc2ccc(CN3CCCCC3)cc2)cc1 the melting point was 170 °C.
Work on COc1ccc2c(c1)C(=O)N(CCN(C)CCN1C(=O)c3cc(OC)c(OC)cc3C(C)(C)C1=O)C(=O)C2(C)C yielded a melting point of 118 to 120 °C.
Cc1cc2c(/C=C/C(=O)OCc3ccccc3)cccc2[nH]1 showed a melting point of 135 to 136 °C.
Molecule Cn1c(-c2cccc3[nH]c(-c4ccncc4)cc23)n[nH]c1=O has a melting point of over 300 °C.
Molecule COc1ccccc1CC(=O)N1C[C@@H]2C(=O)CCC(c3ccccc3)(c3ccccc3)[C@@H]2C1 (racemic) has a melting point of 163 °C.
With CCOC(=O)C(=O)Nc1cc(C(F)(F)F)cc(C(F)(F)F)c1[N+](=O)[O-] the melting point was 115 °C.
Molecule CC1(C)c2cc3[nH]c(-c4ccncc4)nc3cc2C(=O)NC1O (centres undefined) has a melting point of 260 to 268 °C.
Molecule OCCN1CCN(c2ccccn2)CC1 has a melting point of 82.5 to 84 °C.
Molecule NCC#CCCCC(=O)O has a melting point of 180 to 183 °C.
In the case of C#CCOc1cc(-n2c(C#N)c(C#N)n(CCC)c2=O)c(F)cc1Cl, the melting point is reported as 164 to 166 °C.
For CN(C)CCCC(=O)N1CCC(C2c3ncc(Br)cc3CCc3cc(Cl)cc(Br)c32)CC1 (single isomer, unassigned; (+)), the melting point was 78 to 80 °C.
Molecule CCOC(=O)C1=Cc2cc(OCC(=O)c3ccc(Br)cc3)ccc2OC1C(F)(F)F (centres undefined) has a melting point of 130 to 132 °C.
Cc1c(C(=O)Nc2ccc(OC3CCN(Cc4ccccc4)CC3)c(C#N)c2)cnn1-c1ccc(Cl)cc1 showed a melting point of 194 °C.
Molecule O=C1C2=C(CCCC2)C(=O)N1c1ccc(Cl)c(CO)c1 has a melting point of 77 to 79 °C.
In the case of COc1cc(C=CC(=O)Nc2cnc3ccc(Cl)cc3c2-c2ccccc2C)cc(OC)c1OC(C)=O, the melting point is reported as 277 to 278 °C.
In the case of Fc1ccc2[nH]cc(C3CCC4(CC3)OCCO4)c2c1, the melting point is reported as 183 to 185 °C.
Work on Cc1c(CNCC(C)(C)C)[nH]c2c(F)c(NC(=O)c3ccc(OC[C@@H]4CCCO4)cc3)ccc12 yielded a melting point of 159 to 160 °C.
For COc1c(C2CCN(CCCCNC(=O)c3ccc(-c4ccc(C#N)cc4)cc3)CC2)ccc2c1CCCC2, the melting point was 154 °C.
Molecule CC(C)(O)Cn1c(CO)nc2c(N)nc3cc(-c4cncc(CO)c4)cnc3c21 has a melting point of 149 to 151 °C.
In the case of COc1ccc(Br)cc1S(=O)(=O)NCCCl, the melting point is reported as 150 °C.
Molecule O=C(NCc1ccn(C2=CC3=C(CC2)CCc2[nH]c(=O)c(=O)n(O)c23)c1)Nc1ccc(C(=O)O)cc1 has a melting point of over 300 °C.
Cn1cccc1C(=O)C(C#N)C(=O)Nc1ccccc1 (centres undefined) gave a melting point of 170 to 172 °C.
With CCCOC(=O)C(C)NC(=O)C(CC(=O)O)NC(=O)C1CCCN1 (centres undefined) the melting point was 233 to 235 °C.
Molecule COC(=O)c1ccc(OCC2CC(=O)N(c3ccc(O)cc3)C2)cc1 (centres undefined) has a melting point of 141 to 144 °C.
COCC(=O)Nc1ccc2ncnc(Nc3cc(Cl)c(Cl)cc3F)c2c1 showed a melting point of 204 to 206 °C.
In the case of CCCCCCCCCCCCCCCCOCC(O)CN(CC(O)COCC(O)CO)C(=O)CCCCCCCCCCCCCCC (centres undefined), the melting point is reported as 78.2 to 79 °C.
For O=C(O)Cc1ccc(OCCNC(=O)C2Cc3ccccc3N2S(=O)(=O)c2ccc(-c3ccc(F)cc3)c(C(F)(F)F)c2)cc1 (centres undefined), the melting point was 92 °C.
In the case of Cn1ncc2c1SSSSS2, the melting point is reported as 57 to 60 °C.
COc1ccc(C=C(NC(C)=O)C(=O)O)cc1OC gave a melting point of 212 to 214 °C.
In the case of O=C1NCC=NN1c1cc(Cl)cc(Cl)c1, the melting point is reported as 179 to 181 °C.
